Marks after values point to notes of the source that are not given here.

Common to all, as to assay type: cell-based, human
In one data set the test system is A2058. The data set is described as follows: Annexin V-FITC/PI staining, flow cytometry. Particulars: 48 h at EC50. An excerpt: (§1) To discern whether cell death triggered by OOPs treatment occurred via apoptosis or necrosis under the experimental conditions applied in this study, live cells treated with OOPs were stained simultaneously with FITC-conjugated annexin V and propidium iodide (PI). Annexin V binds to phosphatidylserine (PS) translocating from the inner to the outer leaflet of the plasma membrane in apoptotic cells. Therefore, annexin V-FITC binding to PS labels live apoptotic cells with green FL. […] PS exposure to the extracellular space and cell membrane permeability were analyzed by flow cytometry as described in detail in the Experimental Section. […] OOP concentrations used were equal to the EC50 values for each cell line (Table 1). annexin V and PI staining discriminated between early- (i.e., annexin V +ve and PI −ve) and late-apoptotic cells (i.e., annexin V +ve and PI +ve), as well as between necrotic (i.e., annexin V −ve and PI +ve) and live (i.e., annexin V −ve and PI −ve) cells (Table 4).
(§2) Apoptosis and necrosis were assessed by double staining with annexin V-FITC and propidium iodide (PI) and were analyzed using flow cytometry (FACS). Human cancer cells were plated in 96-well culture plates in 100 μL of complete medium and were allowed to adhere overnight (~16 h). […] In detail, 0.5 μL of a 500× stock of each tested compound in DMSO was added directly into each well in a final volume of 250 μL culture medium and was gently mixed by pipetting. Control wells were prepared under the same experimental conditions by adding only DMSO at a final concentration of 0.2% (v/v). At the end of the treatment, the cells were detached by trypsinization, media with serum was added to deactivate trypsin, and the cells from three wells were pooled together by centrifugation (1000 rpm, 5 min, 24 °C), washed with cold PBS, centrifuged (1000 rpm, 5 min, 24 °C) and finally resuspended in cold 1× annexin V binding buffer (10 mM HEPES pH = 7.4, 150 mM NaCl, 2.5 mM CaCl2) at a density of 10^4 cells/mL. Staining was performed by incubating with annexin V- FITC and propidium iodide (PI; BioLegend) for 15 min at room temperature in the dark, according to the manufacturer’s instructions. Negative control samples consisted of cells treated only with 0.2% (v/v) DMSO for the same incubation time length (i.e., 48 h). Cells treated with Triton X-100 (0.25% (v/v)) for 5 min at 4 °C were used as controls for 100% permeabilization of the plasma membrane and maximum fluorescence staining with PI (positive control for cells in necrosis). The presence of live, apoptotic or necrotic cells was assessed with the FACS Calibur (Becton–Dickinson, San Jose, CA, USA). In total, 10,000 cells were analyzed per measurement and the acquired data were analyzed using the FlowJo V.10.0.8 software (Tree Star Inc., Ashland, OR, USA). Each condition was analyzed in duplicate, and the results presented are from 2 or 3 independent experiments.
(§3) Data showing OOPs’ apoptotic/necrotic effect were derived from two or three independent experiments and were presented as the means ± SE of the percentage (%) of both annexin V-positive cells (early apoptotic events) and % of annexin V/PI positive cells (late apoptotic events) over the whole cell population normalized to the corresponding events of the control cells, as determined using the FlowJo software.
(In general: In flow cytometry, cells or beads pass a laser one at a time.)

In another data set the test system is HT-29. Put plainly: Annexin V-FITC/PI staining, flow cytometry. Particulars: 48 h at EC50.
Source text: as §1, §2, §3

For a further data set, the system named is MCF-7. Put plainly: Annexin V-FITC/PI staining, flow cytometry. To be noted: 48 h at EC50.
Source text: as §1, §2, §3

Another data set deals with MDA-MB 231. The data set is described as follows: ATP assay under 1% (v/v) O2 versus 20% (v/v) O2, 72 h. Particulars: 1% (v/v) O2 vs 20% (v/v) O2. The method, then:
The effects of drugs on cancer cell lines are usually tested under atmospheric conditions (20% (v/v) O2). However, the O2 content in tissues (normoxia) and solid tumors (hypoxia) is ≤ 5% (v/v). In some tumors (i.e., pancreatic tumors) the % O2 is even ≤ 1% (v/v). This affects cell metabolism and signaling pathways which depend on the hypoxia-induced Factor 1A (HIF1A) and it could affect the activity of certain drugs. […] The effects of these three OOPs were tested on the MDA-MB 231, SK-BR-3 and MCF-7 breast cancer and on the AGS stomach cancer cell lines.
Figure 6 Effect of O2 concentration on the antiproliferative/cytotoxic effect of OOPs. […] Cell viability was determined on (A) AGS, (B) MDA-MB 231, (C) MCF-7 and (D) SK-BR-3 cell lines using ATP-based luminescence assay. The results presented are from two independent experiments performed in triplicate. Bar graphs represent the mean cell count ± SE in each treatment group normalized to the control group (i.e., cells treated only with 0.2% (v/v) DMSO). * p < 0.05; ** p ≤ 0.01; *** p ≤ 0.001 (t-test) comparing the two different conditions.

Regarding `COC(=O)C1=COC(C)[C@@H](C=O)[C@@H]1CC(=O)OCCc1ccc(O)c(O)c1` (mixture of isomers) [3a,b, oleuropein aglycone], in the data set with A2058, the “% Cell Viability” value came to 24%, the “Early Apoptotic (% ± S.D.)” value is 11.88 ± 2.3%, the “Late Apoptotic (% ± S.D.)” value is 7.26 ± 1.6% and the “Total Apoptotic (%)” value was found to be 19.14 ± 0.7%. In the data set on HT-29, the “% Cell Viability” value is on record as 41 ^a %, the “Early Apoptotic (% ± S.D.)” value was 6.95 ± 1.5%, the “Late Apoptotic (% ± S.D.)” value turned out to be 1.55 ± 1.5% and the “Total Apoptotic (%)” value is reported as 8.50 ± 1.8 ^a %. Besides, in the data set on MCF-7, the “% Cell Viability” value came out at 69%, the “Early Apoptotic (% ± S.D.)” value amounted to 7.03 ± 0.3%, the “Late Apoptotic (% ± S.D.)” value is listed as 1.29 ± 0.8% and the “Total Apoptotic (%)” value was determined as 8.31 ± 1.2%. The “bioactivity under hypoxia versus atmospheric O2” value with MDA-MB 231 is “more resistant”.
Turning to `C/C=C(/C=O)[C@@H](CC=O)CC(=O)OCCc1ccc(O)cc1` [compound 1, oleocanthal], in the data set on A2058, the “% Cell Viability” value turned out to be 36%, the “Early Apoptotic (% ± S.D.)” value turned out to be 5.05 ± 2.7%, the “Late Apoptotic (% ± S.D.)” value worked out at 2.35 ± 1.7% and the “Total Apoptotic (%)” value came out at 7.40 ± 4.4%. Further, in the data set on HT-29, the “% Cell Viability” value is recorded as 66%, the “Early Apoptotic (% ± S.D.)” value worked out at 5.53 ± 1.1% and the “Late Apoptotic (% ± S.D.)” value was determined as 6.10 ± 4.3%. In the data set with MCF-7, the “% Cell Viability” value turned out to be 65%, the “Early Apoptotic (% ± S.D.)” value turned out to be 6.30 ± 2.3%, the “Late Apoptotic (% ± S.D.)” value is 3.77 ± 0.8% and the “Total Apoptotic (%)” value came out at 10.07 ± 3.1%.
Turning to ligstroside aglycone [4a,b], the “bioactivity under hypoxia versus atmospheric O2” value in the data set on MDA-MB 231 is listed as “more resistant”.

For the origin of these results see publication PMC9820430, “New Affordable Methods for Large-Scale Isolation of Major Olive Secoiridoids and Systematic Comparative Study of Their Antiproliferative/Cytotoxic Effect on Multiple Cancer Cell Lines of Different Cancer Origins” (International Journal of Molecular Sciences, 2022).
